Reference: patent publication US10618918B2, “Substituted boronic acids as antimicrobials” (priority 2015, dated 2020)

What was measured:
KP1004 KPC-2 [1] = test: Biapenem potentiation (MPC@1), strain KP1004 KPC-2; assay type: cell-based; conditions: minimum BLI concentration inhibiting growth with biapenem 1 μg/mL; tested up to 40 μg/mL
Procedure: (§1) Biapenem was present in the test medium at 1 μg/mL. […] Table 3 summarizes the BLI potency of biapenem potentiation (MPC@1) for two strains overexpressing class A (KPC) and class D (OXA-48) carbapenemases. Biapenem MIC for each strain is also shown.

ec308 SHV-5 = test: Aztreonam potentiation (MPC@4), strain ec308 SHV-5; conditions: minimum BLI concentration inhibiting growth with aztreonam 4 μg/mL; tested up to 40 μg/mL
KP1086 OXA-48 = test: Biapenem potentiation (MPC@1), strain KP1086 OXA-48; assay type: cell-based; conditions: minimum BLI concentration inhibiting growth with biapenem 1 μg/mL; tested up to 40 μg/mL
Procedure: as §1

ECL1002 = test: Aztreonam potentiation (MPC@4), strain ECL1002; conditions: minimum BLI concentration inhibiting growth with aztreonam 4 μg/mL; tested up to 40 μg/mL
KP1009 CTX-M-15 = test: Aztreonam potentiation (MPC@4), strain KP1009 CTX-M-15; conditions: minimum BLI concentration inhibiting growth with aztreonam 4 μg/mL; tested up to 40 μg/mL
[2] = target: T1, purified class A, C and D enzymes (β-lactamases) (Pseudomonas aeruginosa, UniProt P24735); test: biochemical; assay type: biochemical
T1 construct: rows headed: Ki (Pa-AmpC, NCF), uM; other: purified Pa-AmpC; nitrocefin (NCF) as reporter substrate
T1 sequence (P24735 whole entry): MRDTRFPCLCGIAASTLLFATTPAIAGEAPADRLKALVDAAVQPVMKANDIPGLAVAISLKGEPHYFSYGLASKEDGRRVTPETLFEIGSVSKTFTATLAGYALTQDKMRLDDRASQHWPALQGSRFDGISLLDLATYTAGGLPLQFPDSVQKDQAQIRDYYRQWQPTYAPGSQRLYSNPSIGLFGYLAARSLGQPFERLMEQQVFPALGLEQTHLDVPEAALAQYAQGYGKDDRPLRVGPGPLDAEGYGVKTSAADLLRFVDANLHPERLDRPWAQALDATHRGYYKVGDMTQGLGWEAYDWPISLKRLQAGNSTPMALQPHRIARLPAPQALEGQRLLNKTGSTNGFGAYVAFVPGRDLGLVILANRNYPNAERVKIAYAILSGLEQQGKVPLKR

[3] = target: purified class A, C and D enzymes (β-lactamases) (Escherichia coli, UniProt Q9L5C7); test: biochemical; assay type: biochemical; conditions: purified CTX-M-14; nitrocefin (NCF) as reporter substrate
purified class A, C and D enzymes (β-lactamases) (Escherichia coli, UniProt Q9L5C7), sequence (Q9L5C7 entry or part of it): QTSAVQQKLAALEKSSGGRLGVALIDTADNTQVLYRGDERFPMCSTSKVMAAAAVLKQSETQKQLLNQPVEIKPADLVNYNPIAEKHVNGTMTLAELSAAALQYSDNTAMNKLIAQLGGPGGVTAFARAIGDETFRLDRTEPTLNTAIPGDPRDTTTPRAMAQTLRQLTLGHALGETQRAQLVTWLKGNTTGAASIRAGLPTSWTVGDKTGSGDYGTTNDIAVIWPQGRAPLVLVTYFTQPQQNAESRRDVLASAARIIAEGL

[4] = target: purified class A, C and D enzymes (β-lactamases) (Klebsiella pneumoniae, UniProt Q9F663); test: biochemical; assay type: biochemical; conditions: purified KPC-2; nitrocefin (NCF) as reporter substrate
[5] = target: purified class A, C and D enzymes (β-lactamases) (Klebsiella pneumoniae, UniProt Q6XEC0); test: biochemical; assay type: biochemical; conditions: purified OXA-48; nitrocefin (NCF) as reporter substrate
[6] = target: T2, purified class A, C and D enzymes (β-lactamases) (Acinetobacter baumannii, UniProt Q9L4P2); test: biochemical; assay type: biochemical; conditions: purified OXA-23; nitrocefin (NCF) as reporter substrate
T2 construct: rows headed: Ki (OXA-23, NCF), uM; other: purified OXA-23; nitrocefin (NCF) as reporter substrate
T2 sequence (Q9L4P2 whole entry): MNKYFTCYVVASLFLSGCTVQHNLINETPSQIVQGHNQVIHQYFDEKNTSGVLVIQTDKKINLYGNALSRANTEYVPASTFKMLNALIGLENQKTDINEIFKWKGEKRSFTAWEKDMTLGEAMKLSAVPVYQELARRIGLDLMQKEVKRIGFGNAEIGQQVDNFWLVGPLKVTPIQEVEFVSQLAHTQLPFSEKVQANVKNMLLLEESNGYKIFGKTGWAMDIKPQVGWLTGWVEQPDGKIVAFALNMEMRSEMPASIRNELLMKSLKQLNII

[7] = target: purified class A, C and D enzymes (β-lactamases) (Enterobacter cloacae, UniProt P05364); test: biochemical; assay type: biochemical
purified class A, C and D enzymes (β-lactamases) (Enterobacter cloacae, UniProt P05364), sequence (P05364 21-381): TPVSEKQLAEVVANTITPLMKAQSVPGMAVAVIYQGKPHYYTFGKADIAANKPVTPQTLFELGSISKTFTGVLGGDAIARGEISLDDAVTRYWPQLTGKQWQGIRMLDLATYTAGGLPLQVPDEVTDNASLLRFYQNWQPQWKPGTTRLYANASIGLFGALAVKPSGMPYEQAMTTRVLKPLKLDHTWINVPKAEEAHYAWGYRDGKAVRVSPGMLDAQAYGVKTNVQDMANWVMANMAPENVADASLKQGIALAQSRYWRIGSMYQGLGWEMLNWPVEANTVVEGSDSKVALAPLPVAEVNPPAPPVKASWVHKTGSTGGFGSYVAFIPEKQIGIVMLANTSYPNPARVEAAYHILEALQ

AB1053 OXA-72 = test: Meropenem potentiation (MPC@8), strain AB1053 OXA-72; assay type: cell-based, Acinetobacter baumannii; conditions: minimum BLI concentration inhibiting growth with meropenem 8 μg/mL; tested up to 20 μg/mL
EC1010 CMY-6 = test: Aztreonam potentiation (MPC@4), strain EC1010 CMY-6; conditions: minimum BLI concentration inhibiting growth with aztreonam 4 μg/mL; tested up to 40 μg/mL
AB1054 OXA-23 = test: Meropenem potentiation (MPC@8), strain AB1054 OXA-23; assay type: cell-based, Acinetobacter baumannii; conditions: minimum BLI concentration inhibiting growth with meropenem 8 μg/mL; tested up to 20 μg/mL
KP1004 KPC-2 [8] = test: Aztreonam potentiation (MPC@4), strain KP1004 KPC-2; conditions: minimum BLI concentration inhibiting growth with aztreonam 4 μg/mL; tested up to 40 μg/mL
KP1005 CTX-M-14 = test: Tigemonam potentiation (MPC@4), strain KP1005 CTX-M-14; conditions: minimum BLI concentration inhibiting growth with tigemonam 4 μg/mL; tested up to 40 μg/mL
ec302 TEM-10 = test: Aztreonam potentiation (MPC@4), strain ec302 TEM-10; conditions: minimum BLI concentration inhibiting growth with aztreonam 4 μg/mL; tested up to 40 μg/mL
KP1010 SHV-12 = test: Aztreonam potentiation (MPC@4), strain KP1010 SHV-12; conditions: minimum BLI concentration inhibiting growth with aztreonam 4 μg/mL; tested up to 40 μg/mL

Row | SMILES | BPM MPC1 KP1004 KPC-2 (KP1004 KPC-2 [1]) | AZT MPC4 SHV-5 ec308 (ec308 SHV-5) | BPM MPC1 OXA-48 KP1086 (KP1086 OXA-48) | AZT MPC4 ECL1002 (ECL1002) | AZT MPC4 CTX-M-15 KP1009 (KP1009 CTX-M-15) | Ki [2] [µM] | Ki (CTX-M-14, NCF), uM [3] | Ki (KPC-2, NCF), uM [4] | Ki (OXA-48, NCF), uM [5] | Ki [6] [µM] | Ki (P99, NCF), uM [7] | MPM MPC8 AB1053 OXA-72 (AB1053 OXA-72) | AZT MPC4 CMY-6 EC1010 (EC1010 CMY-6) | MPM MPC8 AB1054 OXA-23 (AB1054 OXA-23) | AZT MPC4 KPC-2 KP1004 (KP1004 KPC-2 [8]) | TIG MPC4 CTX-M-14 KP1005 (KP1005 CTX-M-14) | AZT MPC4 TEM-10 ec302 (ec302 TEM-10) | AZT MPC4 SHV-12 KP1010 (KP1010 SHV-12)
1 | CS(=O)(=O)Nc1ccc2c(c1C(=O)[O-])O[B-](O)(O)CC2.[Na+].[Na+] [Compound 51, Disodium; 4,4-dihydroxy-8-(methanesulfonamido)-5-oxa-4-boranuidabicyclo[4.4.0]deca-1(6),7,9-triene-7-carboxylate] | X (X = MPC@1 ≤ 5 μg/mL) | X (X = MPC@4 ≤ 5 μg/mL) | X (X = MPC@1 ≤ 5 μg/mL) | Z (Z = MPC@4 > 20 μg/mL) | Y (Y = 5 μg/mL < MPC@4 ≤ 20 μg/mL) | < 0.1 | X (X = Ki ≤ 0.1 μM) | X (X = Ki ≤ 0.1 μM) | X (X = Ki ≤ 0.1 μM) | < 0.1 | X (key: X = Ki ≤ 0.1 μM; Y = 0.1 μM < Ki ≤ 1 μM; Z = Ki > 1 μM) | Z (Z = MPC@1 > 20 μg/mL) | Y (Y = 5 μg/mL < MPC@4 ≤ 20 μg/mL) | Z (Z = MPC@1 > 20 μg/mL) | Y (Y = 5 μg/mL < MPC@4 ≤ 20 μg/mL) | Z (Z = MPC@4 > 20 μg/mL) | X (X = MPC@4 ≤ 5 μg/mL) | X (X = MPC@4 ≤ 5 μg/mL)
2 | NS(=O)(=O)Nc1ccc2c(c1C(=O)[O-])O[B-](O)(O)CC2.[Na+].[Na+] [Compound 52, Disodium; 4,4-dihydroxy-8-(sulfamoylamino)-5-oxa-4-boranuidabicyclo[4.4.0]deca-1(6),7,9-triene-7-carboxylate] | X (X = MPC@1 ≤ 5 μg/mL) | Y (Y = 5 μg/mL < MPC@4 ≤ 20 μg/mL) | X (X = MPC@1 ≤ 5 μg/mL) | X (X = MPC@4 ≤ 5 μg/mL) | Y (Y = 5 μg/mL < MPC@4 ≤ 20 μg/mL) | < 0.1 | X (X = Ki ≤ 0.1 μM) | X (X = Ki ≤ 0.1 μM) | X (X = Ki ≤ 0.1 μM) | 0.1 to 1 | X (key: X = Ki ≤ 0.1 μM; Y = 0.1 μM < Ki ≤ 1 μM; Z = Ki > 1 μM) | Z (Z = MPC@1 > 20 μg/mL) | X (X = MPC@4 ≤ 5 μg/mL) | Z (Z = MPC@1 > 20 μg/mL) | X (X = MPC@4 ≤ 5 μg/mL) | Z (Z = MPC@4 > 20 μg/mL) | Y (Y = 5 μg/mL < MPC@4 ≤ 20 μg/mL) | X (X = MPC@4 ≤ 5 μg/mL)
3 | O=C([O-])c1ccc2c(c1C(=O)[O-])O[B-](O)(O)CC2.[Na+].[Na+].[Na+] [Compound 53, Trisodium; 4,4-dihydroxy-5-oxa-4-boranuidabicyclo[4.4.0]deca-1(6),7,9-triene-7,8-dicarboxylate] | X (X = MPC@1 ≤ 5 μg/mL) | Y (Y = 5 μg/mL < MPC@4 ≤ 20 μg/mL) | X (X = MPC@1 ≤ 5 μg/mL) | X (X = MPC@4 ≤ 5 μg/mL) | Y (Y = 5 μg/mL < MPC@4 ≤ 20 μg/mL) | < 0.1 | X (X = Ki ≤ 0.1 μM) | X (X = Ki ≤ 0.1 μM) | X (X = Ki ≤ 0.1 μM) | < 0.1 | X (key: X = Ki ≤ 0.1 μM; Y = 0.1 μM < Ki ≤ 1 μM; Z = Ki > 1 μM) | X (X = MPC@1 ≤ 5 μg/mL) | X (X = MPC@4 ≤ 5 μg/mL) | X (X = MPC@1 ≤ 5 μg/mL) | X (X = MPC@4 ≤ 5 μg/mL) | Z (Z = MPC@4 > 20 μg/mL) | Y (Y = 5 μg/mL < MPC@4 ≤ 20 μg/mL) | X (X = MPC@4 ≤ 5 μg/mL)
4 | CON=Cc1ccc2c(c1C(=O)[O-])O[B-](O)(O)CC2.[Na+].[Na+] [Compound 55, Disodium; 4,4-dihydroxy-8-(methoxyiminomethyl)-5-oxa-4-boranuidabicyclo[4.4.0]deca-1(6),7,9-triene-7-carboxylate] | X (X = MPC@1 ≤ 5 μg/mL) | X (X = MPC@4 ≤ 5 μg/mL) | X (X = MPC@1 ≤ 5 μg/mL) | X (X = MPC@4 ≤ 5 μg/mL) | X (X = MPC@4 ≤ 5 μg/mL) | < 0.1 | X (X = Ki ≤ 0.1 μM) | X (X = Ki ≤ 0.1 μM) | X (X = Ki ≤ 0.1 μM) | < 0.1 | X (key: X = Ki ≤ 0.1 μM; Y = 0.1 μM < Ki ≤ 1 μM; Z = Ki > 1 μM) | Z (Z = MPC@1 > 20 μg/mL) | X (X = MPC@4 ≤ 5 μg/mL) | Z (Z = MPC@1 > 20 μg/mL) | X (X = MPC@4 ≤ 5 μg/mL) | Z (Z = MPC@4 > 20 μg/mL) | X (X = MPC@4 ≤ 5 μg/mL) | X (X = MPC@4 ≤ 5 μg/mL)
5 | CCOc1ccc2c(c1C(=O)[O-])O[B-](O)(O)CC2.[Na+].[Na+] [Compound 57, Disodium; 8-ethoxy-4,4-dihydroxy-5-oxa-4-boranuidabicyclo[4.4.0]deca-1(6),7,9-triene-7-carboxylate] | X (X = MPC@1 ≤ 5 μg/mL) | X (X = MPC@4 ≤ 5 μg/mL) | X (X = MPC@1 ≤ 5 μg/mL) | X (X = MPC@4 ≤ 5 μg/mL) | X (X = MPC@4 ≤ 5 μg/mL) | < 0.1 | X (X = Ki ≤ 0.1 μM) | X (X = Ki ≤ 0.1 μM) | X (X = Ki ≤ 0.1 μM) | < 0.1 | X (key: X = Ki ≤ 0.1 μM; Y = 0.1 μM < Ki ≤ 1 μM; Z = Ki > 1 μM) | X (X = MPC@1 ≤ 5 μg/mL) | X (X = MPC@4 ≤ 5 μg/mL) | X (X = MPC@1 ≤ 5 μg/mL) | X (X = MPC@4 ≤ 5 μg/mL) | Y (Y = 5 μg/mL < MPC@4 ≤ 20 μg/mL) | X (X = MPC@4 ≤ 5 μg/mL) | X (X = MPC@4 ≤ 5 μg/mL)
